Data taken from patent US7432283B2, “Heterocyclic GABAA subtype selective receptor modulators” (Roche Palo Alto LLC, priority 2004, dated 2008).

Columns and labels:
GABAA α1β2γ2 = target: T1, GABAA α1β2γ2 (Homo sapiens, UniProt P14867+P18507+P47870); assay: 35S-TBPS binding assay, GABAA α1β2γ2; conditions: 35S-TBPS (5 nM) competition, GABA 1 μM, HEK293 cell membranes, 2 hours at room temperature; for IC50: read-out: pIC50 α1β2γ2 (converted)
T1 construct: expressed in transfected cells; host or cells: HEK293
Method: (§1) The binding assay is based on the assay reported by K. Gee et al., Eur. J. Pharmacol. 1987 136:419-423.
(§2) Homogenate preparation: Membrane preparations of HEK293 cells containing either GABAA α1β2γ2 or GABAA α2β3γ2 constructs were performed according to a modified procedure previously described by Gee et al. (supra). Whole HEK 293 cells in D-PBS (calcium/magnesium free) buffer adjusted to pH 7.4 were centrifuged at 7,280×g for 20 m. After discarding the supernatant, the pellet was resuspended in the buffer and centrifuged at 1,820×g for 10 m. Afterwards, the supernatant was discarded and the pellet resuspended in ice-cold preparation buffer (50 mM Tris HCl pH 7.4, 4° C. and 150 mM KCl), homogenized for 30 sec using a Brinkmann Polytron PT3000 (setting 6) and centrifuged at 48,000×g for 30 m at 4° C. The centrifugation and homogenization procedure was repeated two more times for a total of 3 times before resuspending the membranes at a final protein concentration of 0.5 mg/mL. Aliquots (30 mL) of the final membrane preparation were then centrifuged at 48,000×g for 30 m, and the resulting pellets were stored at −80° C. until required.
(§3) 35S-TBPS binding assay. Membrane pellets containing either GABAA α1β2γ2 or GABAA α2β3γ2 constructs were thawed on ice, resuspended in 10 mL of 50 mM Tris HCl pH 7.4, 4° C. and 150 mM KCl and centrifuged at 48,000×g, 30 m at 4° C. After discarding the supernatant, the pellet was resuspended in 30 mL incubation buffer (50 mM Tris HCl pH 7.4, 25° C. and 150 mM KCl) at approximately 0.5 mg/mL protein concentration. In ^35S-TBPS competition studies, HEK293 membranes were incubated with ^35S-TBPS (5 nM final) and GABA (1 μM) in the absence or presence of competitor at concentrations ranging from 0.01 nM to 10 μM in 125 μL incubation buffer for 2 hours at room temperature (˜22° C.). Non-specific binding was assayed with picrotoxin (100 μM final concentration). […] Measurement of bound radioactivity was performed using a Packard Microplate 96 well topcount scintillation counter. […]

GABAA α2β3γ2 = target: T2, GABAA α2β3γ2 (Homo sapiens, UniProt P18507+P28472+P47869); assay: 35S-TBPS binding assay, GABAA α2β3γ2; conditions: 35S-TBPS (5 nM) competition, GABA 1 μM, HEK293 cell membranes, 2 hours at room temperature; for IC50: read-out: pIC50 α2β3γ2 (converted)
T2 construct: expressed in transfected cells; host or cells: HEK293
Method: as §1, §2, §3

T1 sequence (P14867 28-456): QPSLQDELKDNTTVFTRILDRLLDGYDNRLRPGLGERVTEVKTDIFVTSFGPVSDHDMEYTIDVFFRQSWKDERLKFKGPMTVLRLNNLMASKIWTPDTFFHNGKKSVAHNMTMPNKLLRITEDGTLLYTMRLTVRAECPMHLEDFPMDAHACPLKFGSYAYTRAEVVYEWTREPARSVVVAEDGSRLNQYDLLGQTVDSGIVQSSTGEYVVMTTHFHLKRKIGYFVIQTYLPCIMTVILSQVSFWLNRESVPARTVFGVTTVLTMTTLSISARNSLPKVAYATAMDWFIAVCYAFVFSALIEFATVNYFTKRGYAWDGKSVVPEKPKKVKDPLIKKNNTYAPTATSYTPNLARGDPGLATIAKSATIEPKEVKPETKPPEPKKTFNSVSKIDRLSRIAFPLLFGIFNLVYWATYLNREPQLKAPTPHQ
T1 sequence (P47870 25-512 limits assumed): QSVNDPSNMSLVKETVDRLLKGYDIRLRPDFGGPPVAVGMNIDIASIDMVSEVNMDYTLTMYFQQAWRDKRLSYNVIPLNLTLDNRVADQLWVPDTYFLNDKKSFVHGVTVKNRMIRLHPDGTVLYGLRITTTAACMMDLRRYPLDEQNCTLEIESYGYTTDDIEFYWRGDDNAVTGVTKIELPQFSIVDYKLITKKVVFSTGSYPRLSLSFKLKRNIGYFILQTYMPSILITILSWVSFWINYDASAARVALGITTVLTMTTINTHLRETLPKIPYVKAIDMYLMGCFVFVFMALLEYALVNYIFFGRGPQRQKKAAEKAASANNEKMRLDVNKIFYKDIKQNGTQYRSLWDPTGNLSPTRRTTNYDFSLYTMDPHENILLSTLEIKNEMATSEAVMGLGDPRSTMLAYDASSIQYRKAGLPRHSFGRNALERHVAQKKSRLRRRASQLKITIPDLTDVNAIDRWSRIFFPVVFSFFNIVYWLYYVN
T1 sequence (P18507 40-475): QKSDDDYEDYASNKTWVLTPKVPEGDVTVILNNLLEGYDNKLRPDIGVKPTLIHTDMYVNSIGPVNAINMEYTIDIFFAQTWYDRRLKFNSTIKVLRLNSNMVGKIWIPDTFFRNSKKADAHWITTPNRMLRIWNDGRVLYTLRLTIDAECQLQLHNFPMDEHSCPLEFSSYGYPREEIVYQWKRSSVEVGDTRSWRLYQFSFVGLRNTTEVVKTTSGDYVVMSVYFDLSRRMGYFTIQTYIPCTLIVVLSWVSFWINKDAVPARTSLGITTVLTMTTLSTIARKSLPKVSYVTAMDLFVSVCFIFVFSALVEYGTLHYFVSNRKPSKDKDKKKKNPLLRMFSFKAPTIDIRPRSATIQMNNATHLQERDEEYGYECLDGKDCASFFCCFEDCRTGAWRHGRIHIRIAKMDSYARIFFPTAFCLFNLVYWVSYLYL
T2 sequence (P47869 29-451): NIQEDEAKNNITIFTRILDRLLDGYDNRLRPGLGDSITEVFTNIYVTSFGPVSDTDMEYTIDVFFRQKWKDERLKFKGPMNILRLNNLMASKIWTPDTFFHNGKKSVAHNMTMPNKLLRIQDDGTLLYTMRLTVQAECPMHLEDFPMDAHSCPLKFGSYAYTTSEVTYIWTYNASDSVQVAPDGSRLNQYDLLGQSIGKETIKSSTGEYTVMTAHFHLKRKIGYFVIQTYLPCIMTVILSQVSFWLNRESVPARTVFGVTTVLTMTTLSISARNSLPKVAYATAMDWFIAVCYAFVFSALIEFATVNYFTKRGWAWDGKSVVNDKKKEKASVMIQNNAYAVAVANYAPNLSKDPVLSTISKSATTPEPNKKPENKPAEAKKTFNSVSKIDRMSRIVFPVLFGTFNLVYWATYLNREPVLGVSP
T2 sequence (P28472 26-473): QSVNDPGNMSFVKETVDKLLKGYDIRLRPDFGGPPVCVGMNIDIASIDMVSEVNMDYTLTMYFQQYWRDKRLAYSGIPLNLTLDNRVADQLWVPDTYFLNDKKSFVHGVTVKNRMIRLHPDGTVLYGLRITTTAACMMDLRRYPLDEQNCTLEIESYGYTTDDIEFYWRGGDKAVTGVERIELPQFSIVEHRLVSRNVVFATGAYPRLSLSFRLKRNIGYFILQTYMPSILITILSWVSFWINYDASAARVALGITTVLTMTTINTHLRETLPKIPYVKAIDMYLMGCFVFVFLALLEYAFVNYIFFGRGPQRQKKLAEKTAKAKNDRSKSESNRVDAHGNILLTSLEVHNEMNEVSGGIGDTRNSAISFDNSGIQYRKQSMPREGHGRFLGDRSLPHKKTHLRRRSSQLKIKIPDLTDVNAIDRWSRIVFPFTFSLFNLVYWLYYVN
T2 sequence (P18507 40-475): as the sequence (P18507 40-475) above

Compound	melting point	other results
7-(2,4-Dichloro-phenyl)-3-ethynyl-2-methyl-4,5,6,7-tetrahydro-2H-|pyrazolo[3,4-b]pyridine [Compound 3-10]	–	pIC50 α1β2γ2 (GABAA α1β2γ2): 5.423; pIC50 α2β3γ2 (GABAA α2β3γ2): 6.883
Cn1nc2c(c1Cl)CCCN2c1ccc(Cl)cc1Cl [Compound 1-9, 3-chloro-7-(2,4-dichloro-phenyl)-2-methyl-4,5,6,7-tetrahydro-2H-pyrazolo [3,4-b]pyridine]	94.5 to 95.5 °C	IC50 (GABAA α1β2γ2): 1200 nM; IC50 (GABAA α2β3γ2): 96.4 nM
Cc1c2c(nn1C)N(c1ccc(Cl)cc1Cl)CCC2 [Compound 2-17, 7-(2,4-Dichloro-phenyl)-2,3-dimethyl-4,5,6,7-tetrahydro-2H-pyrazolo[3,4-b]pyridine]	66.6 to 76.6 °C	IC50 (GABAA α1β2γ2): 2840 nM; IC50 (GABAA α2β3γ2): 105 nM
Cc1cc(C)c(N2CCCc3c2nn(C)c3-c2ccccc2C(F)(F)F)c(C)c1 [Compound 9-1, 2-Methyl-3-(2-trifluoromethyl-phenyl)-7-(2,4,6-trimethyl-phenyl)-4,5,6,7-tetrahydro-2H-pyrazolo[3,4-b]pyridine]	59 to 63 °C	–
Cn1nc2c(c1-c1cncnc1)CCCN2c1ccc(Cl)cc1Cl [Compound 9-2, 7-(2,4-Dichloro-phenyl)-2-methyl-3-pyrimidin-5-yl-4,5,6,7-tetrahydro-2H-pyrazolo[3,4-b]pyridine]	164.2 to 166.8 °C	–
Cn1nc2c(c1-c1ccncc1)CCCN2c1ccc(Cl)cc1Cl [Compound 9-3, 7-(2,4-Dichloro-phenyl)-2-methyl-3-pyridin-4-yl-4,5,6,7-tetrahydro-2H-pyrazolo[3,4-b]pyridine]	123.5 to 125.5 °C	–
Cc1cc(C)c(N2C(=O)CCc3c2nn(C)c3Br)c(C)c1 [Compound 9-4, 3-Bromo-2-methyl-7-(2,4,6-trimethyl-phenyl)-2,4,5,7-tetrahydro-pyrazolo[3,4-b]pyridin-6-one]	256.8 to 258 °C	–
Cc1cc(C)c(N2CCOc3cn(C)nc32)c(C)c1 [Compound 9-5, 2-Methyl-7-(2,4,6-trimethyl-phenyl)-2,5,6,7-tetrahydro-pyrazolo[4,3-b][1,4]oxazine]	103.6 to 104.8 °C	–
COc1cccc(OC)c1-c1c2c(nn1C)N(c1c(C)cc(C)cc1C)CCC2 [Compound 9-6, 3-(2,6-Dimethoxy-phenyl)-2-methyl-7-(2,4,6-trimethyl-phenyl)-4,5,6,7-tetrahydro-2H-pyrazolo[3,5-b]pyridine]	169.9 to 172.8 °C	–
